# Data: US9517244B2, “Therapeutic combinations for use in neoplasia” (University of Florida Research Foundation, Inc., priority 2011, dated 2016)
# Key:
# [1] = system: human parental cancer cells; experiment: cell growth inhibition of parental cancer cells; format: cell-based; details: Homo sapiens, 72 h
# Protocol: Cells were treated with 1.25 μM of NSC-30049 and 1.25 μM of OPT either alone or in combination for 72 h. Data are mean±SD of triplicate experiments. […] Cells were treated with 1.25 μM of NSC-30049 and 1.25 μM of OPT either alone or in combination for 72 h. Fold change in gene expression values is shown as mean±SD of three experiments and are normalized to GAPDH gene expression.
# The effect of administration of NSC-30049 in combination with oxaliplatin (OPT) was also examined in human parental cancer cells and colon cancer stem cells (FIG. 9A). Cells were treated with 1.25 μM of NSC-30049 and […] of OPT either alone or in combination for 72 h. Cell growth inhibition was assayed. Data presented are mean±SD of triplicate experiments.
# [2] = system: Mia-PaCa2; experiment: MTT assay, pancreatic cancer cell line; format: cell-based, human; details: Homo sapiens, MIA PaCa-2; Mia-PaCa2 (dFdC-resistant); single agent; 72 h; read-out: IC50
# [3] = system: HCT-116+ch3 (MMR proficient) xenograft; experiment: xenograft model of colon cancer, tumor volume; format: in vivo; details: NSC-30049 2.5 mg/kg i.p. + temozolomide 20 mg/kg i.p., day 38
# Protocol: (§1) FIG. 10A is a schematic representation of the experimental protocol. […] Data are the mean±SD of four to six animals in each group.
# (§2) Xenograft models of colon cancer were used to test the effect of NSC-30049 as a chemopreventive agent when administered in combination with temozolomide. At day 0, the xenograft host was administered with cells from a colon cancer cell line (HCT-116, MMR deficient; HCT-116+ch3, MMR proficient). Thereafter, temozolomide (20 mg/kg body weight; intraperitoneal) and/or NSC-30049 (2.5 mg/kg body weight; intraperitoneal) were administered to the animals. Tumor growth was evaluated at day 38.
# [4] = system: HCT-116 (MMR deficient) xenograft; experiment: xenograft model of colon cancer, tumor volume; format: in vivo; details: NSC-30049 2.5 mg/kg i.p. + temozolomide 20 mg/kg i.p., day 38
# Protocol: as §1, §2
compound,measurement,setting,value
"ClCC=CC[N+]12CN3CN(CN(C3)C1)C2 [NSC-30049, 1-(4-Chloro-2-butenyl)-1λ˜5˜,3,5,7-tetraazatricyclo[3.3.1.1˜3,7˜]decane]",inhibition at 1.25 µM,[1]; 1.25 μM NSC-30049 in combination with 1.25 μM oxaliplatin,~70%
same,inhibition at 1.25 µM,"[1]; alone, 1.25 μM",~20%
same,IC50,[2],5.12 ± 0.22 µM
same,inhibition of tumor growth (tumor volume),[3],synergistic effect on the inhibition of tumor growth
same,inhibition of tumor growth (tumor volume),[4],synergistic effect on the inhibition of tumor growth
